Test results reported in patent US20150079000A1, “Labelled Quinoxaline Derivatives as Multimodal Radiopharmaceuticals and Their Precursors” (INSTITUT NATIONAL DE LA SANTET DE LA RECHERCHE MEDICALE, priority 2012, published 2015).

Columns and labels:
[1] = octanol/water (PBS buffer) partition coefficient (log D); type: physicochemical
[2] = radiochemical stability of the radiotracer after preparation; type: physicochemical
B16BL6 tumour = test: PET imaging in B16BL6 tumour bearing mice; type: in vivo, C57BL/6J mice; details: 1 h p.i., day-15
Description: (§1) All our studies were performed in accordance with French and European Economic Community (86-609, EEC) guidelines for care of laboratory animals. Protocols were performed under the authorization of the French Direction des Services Veterinaires (authorization no. CE 86-12). Male C57BL/6J mice were originating from Charles River laboratories and maintained at 21° C. with a 12 h/12 h light/dark cycle, fed with a breeding diet (diet A04 from Safe, Villemoisson, France) and received water ad libitum. For transplantation B16BL6 cell suspension were grown in a monolayer culture to confluence, after which cells were trypsinized, washed with phosphate buffer saline (PBS) and they were resuspended in PBS. Mice were anesthetized by isoflurane (4% for induction and 2±0.5% for maintaining in oxygen flux) inhalation. The primary tumour model was induced by subcutaneous injection of 3×10^5 melanoma B16B16 cells in 0.1 mL on the right shoulder of mice.
Whole-body PET scans were acquired 1 h after bolus injection of […] of the appropriate [^18F]-compound in a volume of 0.15 ml via the tail vein. Mice were anesthetized by intraperitoneal (i.p.) administration (200 μL/mouse) of a ketamine-xylazine mixture in saline: ketamine (100 mg/kg, Imalgene™, Rhône Mérieux, Lyon, France) and xylazine (10 mg/kg, Rompun™, Bayer, France) before radiotracer injection and imaged by using a small-animal PET device, eXplore Vista microPET instrument (GE Healthcare). PET images were acquired by using static mode during 20 min. The acquired data were reconstructed using the 2-Dimensional ordered-subsets expectation maximization (OSEM) algorithm and corrected from decay, scatter and randoms. No corrections were applied for partial volume or attenuation.
Regional tracer uptake was quantified by standard region-of-interest (ROI) analysis with eXplore Vista software package. A manual 2D-ROI was drawn around the tumour in each slice where tumour was visible, and on several subsequent coronal planes containing muscle tissue at the forelimb. Results are expressed by percentage of injected dose per gram of tissue (% ID/g).
PET imaging was performed 1 h post injection of tracers in B16BL6 tumour bearing mice at day-15 after tumours cell inoculation.

[3] = test system: B16 murine melanoma tumours; test: Ex vivo biodistribution of [18F]-labelled compounds; type: in vivo, C57BL/6J mice
Description: as §1
Ex vivo biodistribution studies: An ex vivo biodistribution study was performed for better comparison of [^18F](1) and [^18F](5). Experimentations were undertaken at day-10 or day-14 after cell inoculation (n=3-6/group). […] Tumours and major organs and tissues were promptly excised, harvested, weighted and their radioactivity counted using a calibrated γ-counter with a 400 to 600 keV energy window. After radioactive decay correction, results were expressed as percentage of injected dose per gram of tissue (% ID/g).

## CCN(CCNC(=O)c1cnc2cc(I)ccc2n1)CCOCCOCCOCCOCCOCCOCCOCC[18F] [[^18F](5)]
[1]
  octanol/water (PBS buffer) partition coefficient (log D): 0.95±0.02
[2]
  radiochemically stable at room temperature after preparation: at least 6 h
B16BL6 tumour
  eyes uptake: 5.53±1.35 % ID/g
  muscles activity: 1.01±0.09 % ID/g
  tumour uptake: 6.63±1.64 % ID/g
  tumour/muscle ratio: 6.62±1.90
[3]; 1 h p.i.
  % ID/g (tumour): 9.81 ± 2.96 % ID/g
  % ID/g Blood: 1.15 ± 0.19 % ID/g
  % ID/g Bones: 1.82±0.55 % ID/g
  % ID/g Brain: 1.03 ± 0.18 % ID/g
  % ID/g Ceacum: 6.37 ± 4.84 % ID/g
  % ID/g Colon + faeces: 7.39 ± 1.36 % ID/g
  % ID/g Eyes: 12.24 ± 4.39 % ID/g
  % ID/g Heart: 1.58 ± 0.24 % ID/g
  % ID/g Kidney: 3.60 ± 1.74 % ID/g
  % ID/g Liver: 2.02 ± 0.19 % ID/g
  % ID/g Lung: 1.75 ± 0.18 % ID/g
  % ID/g Muscle: 1.07 ± 0.35 % ID/g
  % ID/g Pancreas: 2.63 ± 1.33 % ID/g
  % ID/g Skin: 1.22 ± 0.22 % ID/g
  % ID/g Small intestine: 16.68 ± 7.93 % ID/g
  % ID/g Spleen: 2.35 ± 0.91 % ID/g
  % ID/g Stomach: 5.87 ± 3.32 % ID/g
  TBR Tumour-to-Blood Ratio: 8.29 ± 2.87
  TBoR Tumour-to-Bone Ratio: 5.35 ± 0.82
  TMR Tumour-to-Muscle Ratio: 9.48 ± 2.41
[3]; 2 h p.i.
  % ID/g (tumour): 5.81 ± 1.37 % ID/g
  % ID/g Blood: 1.37 ± 0.30 % ID/g
  % ID/g Bones: 2.13 ± 0.19 % ID/g
  % ID/g Brain: 1.03 ± 0.10 % ID/g
  % ID/g Ceacum: 12.10 ± 10.31 % ID/g
  % ID/g Colon + faeces: 8.14 ± 1.78 % ID/g
  % ID/g Eyes: 12.10 ± 1.85 % ID/g
  % ID/g Heart: 1.70 ± 0.24 % ID/g
  % ID/g Kidney: 3.52 ± 1.02 % ID/g
  % ID/g Liver: 2.31 ± 0.64 % ID/g
  % ID/g Lung: 1.72 ± 0.72 % ID/g
  % ID/g Muscle: 1.04 ± 0.24 % ID/g
  % ID/g Pancreas: 1.56 ± 0.38 % ID/g
  % ID/g Skin: 0.94 ± 0.51 % ID/g
  % ID/g Small intestine: 19.51 ± 5.43 % ID/g
  % ID/g Spleen: 2.38 ± 0.87 % ID/g
  % ID/g Stomach: 7.35 ± 4.79 % ID/g
  TBR Tumour-to-Blood Ratio: 4.01 ± 1.12
  TBoR Tumour-to-Bone Ratio: 2.75 ± 0.80
  TMR Tumour-to-Muscle Ratio: 5.75 ± 1.45
[3]; 3 h p.i.
  % ID/g (tumour): 6.76±1.35 % ID/g
  % ID/g Blood: 0.99 ± 0.20 % ID/g
  % ID/g Bones: 3.61 ± 1.12 % ID/g
  % ID/g Brain: 1.72 ± 0.67 % ID/g
  % ID/g Ceacum: 29.31 ± 17.94 % ID/g
  % ID/g Colon + faeces: 12.63 ± 7.83 % ID/g
  % ID/g Eyes: 13.43 ± 2.17 % ID/g
  % ID/g Heart: 3.00 ± 1.12 % ID/g
  % ID/g Kidney: 2.60 ± 1.69 % ID/g
  % ID/g Liver: 2.60 ± 1.37 % ID/g
  % ID/g Lung: 2.37 ± 0.67 % ID/g
  % ID/g Muscle: 1.11 ± 0.34 % ID/g
  % ID/g Pancreas: 1.81 ± 0.66 % ID/g
  % ID/g Skin: 1.47 ± 0.49 % ID/g
  % ID/g Small intestine: 18.62 ± 13.65 % ID/g
  % ID/g Spleen: 2.35 ± 0.98 % ID/g
  % ID/g Stomach: 5.39 ± 3.13 % ID/g
  TBR Tumour-to-Blood Ratio: 5.27±0.20
  TBoR Tumour-to-Bone Ratio: 2.16 ± 1.15
  TMR Tumour-to-Muscle Ratio: 6.64±2.69
  in vivo defluorination: Partial in vivo defluorinations
